# Structures can show the parent of a compound that is named as a salt. Where two headings read alike, the source gives them in different places.
# Columns and labels:
# [1] = test system: Bradykinin-Induced Knee Pain Model
# Method: The induction and evaluation of the present model was basically carried out in accordance with Ann Rheum Dis, 52, 817-822 (1993). A diluted solution, which was diluted with a solvent so as to obtain a vehicle and the compound A having a predetermined concentration, was orally administered to male SD rats (6-7 week old, obtained by Charles River Laboratories Japan, Inc.). This test was carried out for 10 rats of each group. The solvent herein used was distilled water. […] The inhibition rate of the drug to be tested was calculated by setting the difference in weight of a vehicle-administered group to an inhibition rate of 0% and the difference in weight of a normal group to an inhibition rate of 100%. Significant difference testing was carried out by between-group comparison between the vehicle group and the drug group using a Dunnett's t-test after ANOVA testing.
# [2] = test system: Monoiodoacetate (MIA)-Induced Osteoarthritis Model; settings: rats, 3 weeks after MIA administration, inflammation already recovered; cited from earlier work
# [3] = test system: Adjuvant-Derived Arthritis Rat; test: Inhibitory effect on the difference in hindlimb weight of adjuvant-derived arthritis rat; format: in vivo
# Method: In this test, female Lewis rats (7-8 weeks old) were used. 50 μL of H37 Ra (manufactured by DIFCO Co.), Mycobacterium tuberculosis suspended with liquid paraffin to a concentration of 10 mg/mL was subcutaneously administered around the right hind footpad. […] The number of rats of each group was 8. The solvent herein used was distilled water. When taking into consideration the period for obtaining a maximum in-blood-concentration, at one hour after administration, the difference in weight between the left and right hindlimbs was measured using an incapacitance tester (manufactured by Linton Instrumentation, Norfolk, UK).
# [4] = test system: Monoiodoacetate (MIA)-Induced Osteoarthritis Model; test: Analgesic action in monoiodoacetate (MIA)-induced osteoarthritis model (difference in hindlimb weight); format: in vivo, rat; settings: male SD rats, 3 weeks after MIA, oral, compound A 30 mg/kg, 1 hour after administration
# Method: The present disease model was produced based on the description of Toxicol Pathol 31 (6), 619-624 (2003). […] MIA was dissolved in physiological saline and 50 μl of the resulting solution was administered with a needle (26 gauge, 0.5 inch). […] The solvent herein used was distilled water. One hour after administration, the difference in weight between the left and right hindlimbs was measured using an incapacitance tester (manufactured by Linton Instrumentation, Norfolk, UK).
# [5] = test system: Bradykinin-Induced Knee Pain Model; settings: as a joint injection; cited from earlier work
# [6] = compound A 10 mg/kg vs duloxetine 30 mg/kg, oral
molecule,measurement,setting,value
"CNCC[C@H](Oc1cccc2ccccc12)c1cccs1 [duloxetine, (S)—N-methyl-γ-(1-naphthalenyloxy)-2-thiophenepropanamine]",improvement effect (inhibition rate) on pain behavior score,"[1]; rat, in vivo, po, 30 mg/kg",56%
O=C(O)Cc1ccccc1Nc1c(Cl)cccc1Cl [diclofenac],effectiveness of NSAIDs on pain in this stage of the MIA model,[2],not effective
"C1=Cc2cccc(OCC3CNCCO3)c2C1 (single isomer, unassigned; (+)) [compound A, (+)-2-[(inden-7-yloxy)methyl]morpholine]",improvement effect relative to duloxetine,[3]; [6],about 3 fold
same,improvement effect relative to duloxetine,[1]; [6],~3 fold
COc1ccc2c(c1)c(CC(=O)O)c(C)n2C(=O)c1ccc(Cl)cc1 [indomethacin],effectiveness of NSAIDs on pain in this stage of the MIA model,[2],not effective
"C1=Cc2cccc(OCC3CNCCO3)c2C1 (single isomer, unassigned; (+)) [compound A benzenesulfonate, (+)-2-[(inden-7-yloxy)methyl]morpholine]",improvement effect (inhibition rate) on pain behavior score,"[1]; male SD rats, oral, 10 mg/kg, bradykinin injected 1 hour after administration",55%
"C1=Cc2cccc(OCC3CNCCO3)c2C1 (single isomer, unassigned; (+)) [compound A hydrobromate, (+)-2-[(inden-7-yloxy)methyl]morpholine]",improvement effect (inhibition rate) on the difference in hindlimb weight,"[3]; female Lewis rats, day after adjuvant, oral, 10 mg/kg, 1 hour after administration",65%
same,improvement effect (inhibition rate) on the difference in hindlimb weight,[4],54%
"CNCC[C@H](Oc1cccc2ccccc12)c1cccs1 [duloxetine hydrochloride, (S)—N-methyl-γ-(1-naphthalenyloxy)-2-thiophenepropanamine]",improvement effect (inhibition rate) on the difference in hindlimb weight,"[3]; rat, in vivo, po, 30 mg/kg",63%
hyaluronan,effectiveness in the bradykinin model,[5],effective

# From patent US20110152268A1, “NOVEL PHARMACEUTICAL COMPOSITION FOR TREATING NOCICEPTIVE PAIN” (ASTELLAS PHARMA INC., priority 2008, published 2011)
